# Results from publication PMC7269057, “Synthesis of calix[4]azacrown substituted sulphonamides with antioxidant, acetylcholinesterase, butyrylcholinesterase, tyrosinase and carbonic anhydrase inhibitory action” (Journal of Enzyme Inhibition and Medicinal Chemistry, 2020).
# Like-named read-outs stand apart in the source and are kept apart here.
# Experiments:
# [1] = DPPH radical scavenging assay; settings: 30 min in the dark, 517 nm; mean ± SD of three measurements; read-out: IC50 DPPH Free Radical
# Method: The DPPH (2,2-diphenyl-1-picrylhydrazyl) radical scavenging activity of the synthesised compounds was determined by a spectrophotometric method based on the reduction of an ethanol solution of DPPH[33]^,[34]. 2, 5, 10, 20 µL of 1 mM stock solution of each compound was completed to 40 µL with the DMSO and mixed with 160 µL of 0.1 mM of DPPH free radical solution. The mixture was led to stand for 30 min in the dark and the absorbance was then measured at 517 nm against a blank. Inhibition of free radical, DPPH, in percent (I %), was calculated according to the formula: I %=(Acontrol−Asample)/Acontrol×100 where Acontrol is the absorbance of the control reaction (containing all reagents except for the tested compounds), and Asample is the absorbance of the test compounds. Tests were carried out in triplicate. BHA and BHT were used as positive control.
# [2] = ABTS cation radical decolorisation assay; settings: 6 min at room temperature, 734 nm; mean ± SD of three measurements
# Method: The percent inhibition of decolorisation of ABTS [2,2′-azino-bis(3-ethylbenzothiazoline-6-sulfonic acid)] cation radical is obtained as a function of time and concentration and evaluated by comparison with the BHT and BHA compounds used as standard[35]^,[36]. The tested compounds at different concentrations are added to each well and 160 µL of 7 mM ABTS solution is added. After 6 min at room temperature, the absorbances were measured at 734 nm. ABTS cation radical decolorisation activities were determined by using the equation below: %Inhibition = (Acontrol−Asample)/Acontrol × 100 where A is the absorbance. Tests were carried out in triplicate. BHA and BHT were used as positive control.
# hCA II = biological target: T1, hCA II (Homo sapiens, UniProt P00918); assay: CA inhibition, stopped flow CO2 hydrase assay; assay type: biochemical; settings: mean from 3 assays, errors ± 5–10%
# T1 construct: made in house
# Method: (§1) An SX.18 MV-R Applied Photophysics (Oxford, UK) stopped-flow instrument has been used to assay the inhibition of various CA isozymes. Phenol Red (at a concentration of 0.2 mM) has been used as an indicator, working at the absorbance maximum of 557 nm, with 10 mM Hepes (pH 7.4) as a buffer, 0.1 M Na2SO4 or NaClO4 (for maintaining constant the ionic strength; […]. Stock solutions of inhibitors were prepared at a concentration of 10 mM (in DMSO-water 1:1, v/v) and dilutions up to 0.01 nM done with the assay buffer mentioned above. At least 7 different inhibitor concentrations have been used for measuring the inhibition constant. Inhibitor and enzyme solutions were pre-incubated together for 10 min at room temperature before assay, to allow for the formation of the E-I complex. Triplicate experiments were done for each inhibitor concentration, and the value reported throughout the paper is the mean of such results. The inhibition constants were obtained by nonlinear least-squares methods using the Cheng-Prusoff equation, as reported earlier, and represent the mean from at least three different determinations1[27–32]. All CA isozymes used here were recombinant proteins obtained as reported earlier by our group.
# hCA XII = biological target: T2, hCA XII (Homo sapiens, UniProt O43570); assay: CA inhibition, stopped flow CO2 hydrase assay; assay type: biochemical; settings: mean from 3 assays, errors ± 5–10%
# T2 construct: made in house
# Method: as §1
# hCA VII = biological target: T3, hCA VII (Homo sapiens, UniProt P43166); assay: biochemical; settings: stopped flow CO2 hydrase assay; mean from 3 assays, errors ± 5–10%
# T3 construct: made in house
# Excerpt: (§2) An SX.18 MV-R Applied Photophysics (Oxford, UK) stopped-flow instrument has been used to assay the inhibition of various CA isozymes[26]. […] The inhibition constants were obtained by nonlinear least-squares methods using the Cheng-Prusoff equation, as reported earlier, and represent the mean from at least three different determinations1[27–32].
# hCA I = biological target: T4, hCA I (Homo sapiens, UniProt P00915); assay: biochemical; settings: stopped flow CO2 hydrase assay; mean from 3 assays, errors ± 5–10%
# T4 construct: made in house
# Excerpt: as §2
# Metal chelating activity = settings: ferrous chloride/ferrozine, 562 nm; mean ± SD of three measurements; read-out: IC50 Metal Chelate
# Method: The chelating ability of synthesised compounds was examined according to the method of Dinis et al.[37]. The tested compounds at different concentrations were added to each well and 4 µL of 2 mM ferrous (II) chloride was added. Then 8 µL of 5 mM ferrozine was added and the reaction was started. After 10 min at room temperature, the absorbance was measured at 562 nm against a blank. The results were expressed as a percentage of inhibition of the ferrozine-Fe^2+ complex formation. The percentage inhibition of the ferrozine -Fe^2+ complex formation was calculated using the formula given below: Chelating ability (%)=(Acontrol−Asample)/Acontrol×100 where A is the absorbance. Tests were carried out in triplicate. EDTA was used as a positive control.
# Tyrosinase from mushroom = assay: Anti-tyrosinase activity (diphenolase, L-DOPA substrate); assay type: biochemical; settings: at 200 µM
# Method: Anti-tyrosinase activity of the compounds was performed according to the method designed by Hearing and Jimenez[39]. Firstly, the inhibition of diphenolase function of the compounds was evaluated and L-DOPA was used as substrate. Tyrosinase from mushroom (E.C. 1.14.18.1) (30 U, 28 nM) was dissolved in Na-phosphate buffer (pH = 6.8, […]) and the compounds were added to the solution for pre-incubation at room temperature for ten minutes. After incubation, 0.5 mM L-DOPA was added to the mixture and the change in absorbance was measured at 475 nm at 37 °C. For positive control, kojic acid was used. The following formula was used to calculate the percentage of all enzyme inhibitions: Inhibition (%) = (Acontrol–Asample)/Acontrol × 100
# hCA IX = biological target: T5, hCA IX (Homo sapiens, UniProt Q16790); assay: biochemical; settings: stopped flow CO2 hydrase assay; mean from 3 assays, errors ± 5–10%
# T5 construct: made in house
# Excerpt: as §2
# hCA IV = biological target: T6, hCA IV (Homo sapiens, UniProt P22748); assay: biochemical; settings: stopped flow CO2 hydrase assay; mean from 3 assays, errors ± 5–10%
# T6 construct: made in house
# Excerpt: as §2
# BChE = BChE (Homo sapiens, UniProt P06276); assay: Anticholinesterase assay (Ellman), BChE; assay type: biochemical; settings: read-out: BChE assay % inhibition
# Method: The inhibitory effect of novel calix[4]azacrown substituted sulphonamide Schiff bases CX(1–6) on AChE and BChE activities was determined according to the slightly modified spectrophotometric method of Ellman et al.[38]. All compounds were dissolved in DMSO to prepare stock solutions at 4 mM concentration. Aliquots of 150 µL of 100 mM sodium phosphate buffer (pH 8.0), 10 µL of sample solution and 20 µL AChE (or BChE) solution were mixed and incubated for 15 min at 25 °C, and DTNB [5,5′-Dithio-bis(2-nitro-benzoic)acid] (10 µL) is added. The reaction was then initiated by the addition of acetylthiocholine iodide (or butyrylthiocholine iodide) (10 µL). […]. Tests were carried out in triplicate. Galantamine was used as positive control.
# T6 sequence (P22748 19-312): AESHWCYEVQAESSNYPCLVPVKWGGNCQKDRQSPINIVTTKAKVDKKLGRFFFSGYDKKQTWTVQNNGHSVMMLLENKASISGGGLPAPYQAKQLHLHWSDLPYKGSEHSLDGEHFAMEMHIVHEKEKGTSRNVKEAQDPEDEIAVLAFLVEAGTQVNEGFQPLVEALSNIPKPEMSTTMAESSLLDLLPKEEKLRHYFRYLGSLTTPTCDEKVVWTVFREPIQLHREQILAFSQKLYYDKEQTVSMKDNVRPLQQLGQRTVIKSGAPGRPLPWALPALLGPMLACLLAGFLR
# T4 sequence (P00915 whole entry): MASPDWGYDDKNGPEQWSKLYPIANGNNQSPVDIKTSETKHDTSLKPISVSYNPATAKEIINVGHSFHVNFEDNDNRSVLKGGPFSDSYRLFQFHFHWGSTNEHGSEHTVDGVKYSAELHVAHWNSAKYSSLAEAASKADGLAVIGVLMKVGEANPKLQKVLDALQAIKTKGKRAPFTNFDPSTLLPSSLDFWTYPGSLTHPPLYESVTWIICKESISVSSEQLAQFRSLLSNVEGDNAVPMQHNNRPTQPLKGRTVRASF
# T3 sequence (P43166 whole entry): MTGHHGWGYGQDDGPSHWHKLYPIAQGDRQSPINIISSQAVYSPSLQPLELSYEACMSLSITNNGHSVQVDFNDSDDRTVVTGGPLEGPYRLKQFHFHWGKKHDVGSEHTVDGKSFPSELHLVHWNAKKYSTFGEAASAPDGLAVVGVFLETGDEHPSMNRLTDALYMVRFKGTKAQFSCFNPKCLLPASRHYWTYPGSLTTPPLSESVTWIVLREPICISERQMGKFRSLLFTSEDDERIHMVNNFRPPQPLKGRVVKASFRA
# T2 sequence (O43570 25-354): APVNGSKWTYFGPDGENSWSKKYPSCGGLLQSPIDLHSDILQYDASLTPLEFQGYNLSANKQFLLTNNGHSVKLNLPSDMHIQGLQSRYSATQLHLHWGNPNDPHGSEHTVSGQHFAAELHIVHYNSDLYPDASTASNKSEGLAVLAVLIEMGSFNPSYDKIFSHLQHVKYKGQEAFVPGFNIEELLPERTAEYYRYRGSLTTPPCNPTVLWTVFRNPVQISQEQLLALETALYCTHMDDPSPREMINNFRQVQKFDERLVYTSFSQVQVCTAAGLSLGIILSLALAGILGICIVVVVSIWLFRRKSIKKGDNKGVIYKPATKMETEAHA
# BChE, sequence (P06276 29-602): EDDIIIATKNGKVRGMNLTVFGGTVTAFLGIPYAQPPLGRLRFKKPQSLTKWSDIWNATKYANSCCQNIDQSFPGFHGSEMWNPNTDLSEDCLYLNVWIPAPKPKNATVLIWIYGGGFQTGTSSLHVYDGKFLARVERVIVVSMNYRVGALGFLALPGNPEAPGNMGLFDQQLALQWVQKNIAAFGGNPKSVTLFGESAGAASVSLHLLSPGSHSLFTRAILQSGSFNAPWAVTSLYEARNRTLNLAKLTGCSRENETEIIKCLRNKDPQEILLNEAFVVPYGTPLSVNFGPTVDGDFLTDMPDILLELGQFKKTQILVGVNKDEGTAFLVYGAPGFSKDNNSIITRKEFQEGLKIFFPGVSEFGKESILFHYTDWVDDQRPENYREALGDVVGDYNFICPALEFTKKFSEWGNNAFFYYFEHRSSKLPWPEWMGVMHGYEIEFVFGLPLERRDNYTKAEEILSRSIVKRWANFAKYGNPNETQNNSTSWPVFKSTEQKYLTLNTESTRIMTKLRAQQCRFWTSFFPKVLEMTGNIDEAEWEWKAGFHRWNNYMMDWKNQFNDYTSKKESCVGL
Compound,IC50 [1] [µM],IC50 [2] [µM],Ki (hCA II) [µM],Ki (hCA XII) [µM],Ki (hCA VII) [µM],Ki (hCA I) [µM],IC50 (Metal chelating activity) [µM],Tyrosinase activity % inhibition (Tyrosinase from mushroom),Ki (hCA IX) [µM],Ki (hCA IV) [µM],inhibition at 200 µM (BChE; at 200 µM) [%],inhibition at 200 µM (BChE) [%]
"COc1ccc(O)c(C(C)(C)C)c1 [BHA, reference compound]",7.88 ± 0.2,17.59 ± 0.1,–,–,–,–,–,–,–,–,–,–
"Cc1cc(C(C)(C)C)c(O)c(C(C)(C)C)c1 [BHT, reference compound]",58.86 ± 0.5,13.2 ± 0.27,–,–,–,–,–,–,–,–,–,–
CC(C)(C)c1cc2c3c(c1)Cc1cc(C=Nc4ccc(S(N)(=O)=O)cc4)cc(c1O)Cc1cc(C(C)(C)C)cc(c1OCC(=O)NCCNC(=O)CO3)Cc1cc(C=Nc3ccc(S(N)(=O)=O)cc3)cc(c1O)C2 [CX-1],> 1000,769.97 ± 0.22,0.82,0.27,1.21,5.55,> 1000,24.46 ± 0.53%,0.15,4.36,–,–
Cc1cc(NS(=O)(=O)c2ccc(/N=C/c3cc4c(O)c(c3)Cc3cc(C(C)(C)C)cc5c3OCC(=O)NCCNC(=O)COc3c(cc(C(C)(C)C)cc3Cc3cc(/C=N/c6ccc(S(=O)(=O)Nc7cc(C)on7)cc6)cc(c3O)C5)C4)cc2)no1 [CX-2],> 1000,> 1000,> 100,> 100,> 100,> 100,> 1000,19.55 ± 0.43%,67.6,> 100,–,–
CC(C)(C)c1cc2c3c(c1)Cc1cc(C=Nc4ccc(S(=O)(=O)Nc5ncccn5)cc4)cc(c1O)Cc1cc(C(C)(C)C)cc(c1OCC(=O)NCCNC(=O)CO3)Cc1cc(C=Nc3ccc(S(=O)(=O)Nc4ncccn4)cc3)cc(c1O)C2 [CX-3],> 1000,121 ± 0.95,> 100,10.2,> 100,> 100,> 1000,35.52 ± 0.82%,46,> 100,–,–
CC(C)(C)c1cc2c3c(c1)Cc1cc(C=Nc4ccc(S(=O)(=O)Nc5nc6ccccc6s5)cc4)cc(c1O)Cc1cc(C(C)(C)C)cc(c1OCC(=O)NCCNC(=O)CO3)Cc1cc(C=Nc3ccc(S(=O)(=O)Nc4nc5ccccc5s4)cc3)cc(c1O)C2 [CX-4],520.3 ± 0.89,> 1000,> 100,> 100,> 100,> 100,> 1000,16.48 ± 0.21%,> 100,> 100,–,–
Cc1ccc(S(=O)(=O)NN=Cc2cc3c(O)c(c2)Cc2cc(C(C)(C)C)cc4c2OCC(=O)NCCNC(=O)COc2c(cc(C(C)(C)C)cc2Cc2cc(C=NNS(=O)(=O)c5ccc(C)cc5)cc(c2O)C4)C3)cc1 [CX-5],16.8 ± 0.85,9.79 ± 0.09,> 100,> 100,> 100,> 100,> 1000,no activity,> 100,> 100,–,–
CC(=O)Nc1ccc(S(=O)(=O)NN=Cc2cc3c(O)c(c2)Cc2cc(C(C)(C)C)cc4c2OCC(=O)NCCNC(=O)COc2c(cc(C(C)(C)C)cc2Cc2cc(C=NNS(=O)(=O)c5ccc(NC(C)=O)cc5)cc(c2O)C4)C3)cc1 [CX-6],9.02 ± 0.05,7.74 ± 0.04,> 100,> 100,> 100,> 100,> 1000,28.15 ± 0.74%,64.6,> 100,35.4 ± 0.9,–
"O=C(O)CN(CCN(CC(=O)O)CC(=O)O)CC(=O)O [EDTA, reference compound]",–,–,–,–,–,–,26.82 ± 0.1,–,–,–,–,–
"COc1ccc2c3c1O[C@H]1C[C@@H](O)C=C[C@@]31CCN(C)C2 [Galantamine, reference compound]",–,–,–,–,–,–,–,–,–,–,–,76.5 ± 1.28
"O=c1cc(CO)occ1O [Kojik acid, kojic acid, reference compound]",–,–,–,–,–,–,–,95.26 ± 0.23%,–,–,–,–
